Marks after values point to notes of the source that are not given here.
What was measured:
[1] = tested on: subjects with mild-to-moderate AD; assay: MMSE (Mini Mental State Examination) change from baseline, 57-week Phase 2a study and 208-week extension study; assay type: in vivo, human; conditions: for MMSE Cohen's d: week 57, compared to standard of care
From the text: The present study integrates and analyzes data and samples from two consecutive clinical trials: 57-week study and 208-week study. 57-week study was a multicenter Phase 2a clinical trial of the drug ANAVEX2-73 that recruited a sample of 32 subjects with mild-to-moderate AD. It consisted of two parts: Part A was a simple randomized, open-label, two-period, cross-over, adaptive trial lasting up to 5 weeks. Each period involved one specific administration route and two possible dose levels: in one period the oral dose (30 mg or 50 mg) was administrated and in the other period an intravenous (IV) form (3 mg or 5 mg) was administered, making a total of 8 possible dose administration schemes in Part A (details available in FIG. 2A). The two periods were separated by a wash-out period of 12 days where no dose was given.
(§1) Part B, following immediately after Part A, was an open-label extension of the oral daily dose for an additional 52 weeks. The primary endpoint of 57-week study was to establish the safety and tolerability of the drug. Secondary endpoints aimed at establishing the relationship between dosing regimen and pharmacodynamics-exploratory efficacy outcomes of cognition and function. Cognition was assessed by the Mini Mental State Examination (MMSE), while functional abilities by the Alzheimer's Disease Co-operative Study—Activities of Daily Living Inventory (ADCS-ADL). Additional cognitive measures included the Cogstate Brief Battery (CBB), and functional measures of Electroencephalography and Event-Related Potential (EEG and ERP). Part B continued an adaptive oral administration scheme. Table 12 summarizes mean oral dose administration during the 57-week study study.
Due to favorable safety and tolerability profile of the 57-week study (Table 2), and in response to requests from patients and caregivers, a 208-week open-label extension study (208-week study) was carried out immediately after completion of 57-week study Part B. 208-week study enrolled the 24 subjects who completed Part B and applied similarly an adaptive daily oral administration scheme. ANAVEX2-73-003 involves continuous evaluation of safety and efficacy as measured by the MMSE and ADCS-ADL. At week 148 (interim time point for analyses), data on the subjects remaining in the study (n=21) was analyzed for efficacy outcomes. This report was drafted using data available at week 148, while ANAVEX2-73-003 is still ongoing.
Exploratory clinical efficacy in this study was defined as change from baseline of each patient's cognitive (MMSE) and functional ability (ADCS-ADL) scores. The MMSE57 is a widely used, validated instrument in clinical AD research, including as a cognitive outcome measure in drug trials. The range of the scale is from 0 to 30, with a higher score indicating higher cognitive function. The ADCS-ADL58 is undertaken in a structured caregiver interview format and assesses performance in activities of daily living of patients with AD. The scale is from 0 to 78, with a higher score indicating greater function. The ADCS-ADL has shown to have good test-retest reliability 59. The MMSE and the ADCS-ADL were assessed during pre-specified clinical site visits across 14 different time points during the 57-week study (Weeks 0 and 5 in Part A; Weeks 17, 31, 41, 53, and 57 in Part B), and 208-week study (Weeks 70, 83, 96, 109, 122, 135, and 148) studies.
Corresponding Delta scores were calculated using the difference between values at each visit and at baseline for each individual patient, with a focus on Week 57. In addition, to lower the impact of noise in MMSE and ADCS-ADL scores, a Slope was estimated using a linear regression across all available time points for each individual patient. The derived scores describe the progression of exploratory efficacy data from baseline at several specific time points (Deltas) and over a set period of time (Slope). […]

[2] = Safety and tolerability, 57-week study; assay type: in vivo, human
Description: as §1, with “study. Safety was evaluated by assessment of incidence and severity of adverse events, vital signs, physical examination, clinical laboratory parameters (hematology, serum chemistry and urinalysis), and electrocardiogram (data not shown).” for “study.”

[3] = Absence of COMT_L146fs variant & Baseline MMSE ≥20, N 11
[4] = Absence of COMT_L146fs variant, N 16
[5] = Absence of SIGMAR1_Q2P variant, N 16
[6] = Absence of SIGNAR1_Q2P variant & Baseline MMSE ≥20, N 11

Question: For `CN(C)CC1CCOC1(c1ccccc1)c1ccccc1.Cl` (stereo not drawn) [ANAVEX2-73, tetrahydro-N,N-dimethyl-2,2-diphenyl-3-furanmethanamine hydrochloride], which “MMSE Mean Δ at 57 weeks” value [1, 3] is on record?
Answer: 0.18 ± 4.35

Question: What about the “MMSE Mean Δ at 57 weeks” value [1, 4] of the same compound?
Answer: −0.62 ± 4.05

Question: What about the “MMSE Mean Δ at 57 weeks” value ([1]; Absence of SIGMAR1_Q2P variant & Absence of COMT_L145fs variant & Baseline MMSE ≥20, N 10) of the same compound?
Answer: 0.50 ± 4.45

Question: And the “MMSE Mean Δ at 57 weeks” value [1, 5]?
Answer: −0.62 ± 4.11

Question: And the “MMSE Mean Δ at 57 weeks” value [1, 6]?
Answer: 0.27 ± 4.29

Question: And the “MMSE Mean Δ at 57 weeks” value ([1]; All, N 21)?
Answer: −1.52 ± 4.15

Question: And the “MMSE Mean Δ at 57 weeks” value ([1]; Baseline MMSE ≥20, N 13)?
Answer: −0.15 ± 4.06

Question: What about the “favorable difference in adjusted MMSE, higher concentration arm compared with low/medium arm” value ([1]; MMRM-LME, over 148 weeks) of the same compound?
Answer: 78%

Question: And the “MMSE Cohen's d” value [1, 3]?
Answer: 0.98**

Question: And the “MMSE Cohen's d” value [1, 4]?
Answer: 0.81**

Question: What about the “MMSE Cohen's d” value [1, 5] of the same compound?
Answer: 0.81**

Question: And the “MMSE Cohen's d” value [1, 6]?
Answer: 1.01**

Question: And the “MMSE Cohen's d” value ([1]; Baseline MMSE ≥20, N 13)?
Answer: 0.94**

Question: And the “primary endpoint of safety and tolerability” value ([2]; 57-week Phase 2a AD study, 32 patients with mild to moderate AD)?
Answer: met its primary endpoint of safety and tolerability

Question: What about the “patients discontinued due to an Adverse Event (AE)” value ([2]; 57-week study, seven patients discontinued in total) of the same compound?
Answer: one

— patent publication US12383526B2, “Optimized sigma-1 agonist method of responder selection and treatment” (ANAVEX LIFE SCIENCES CORP., priority 2018, dated 2025)
